Measured values as given in patent US11135212B2, “Method for treating osteoporosis, osteopenia or low bone mineral density” (Altum Pharmaceuticals Inc., priority 2009, dated 2021).

Experiments:
[1] = test system: cathepsin K gene expression; test: Osteoclast marker gene expression by real time RT-PCR: cathepsin K; type: cell-based, mouse (C57BL/6); details: osteoclasts treated with drug vs DMSO; FIG. 2
Description: (§1) Mouse bone marrow cells were flushed out from femora and tibiae of two 1-2-month old mice (C57BL/6), plated in culture medium (alpha MEM supplemented with 10% heat-inactivated fetal bovine serum, 100 international units/ml penicillin, 100 μg/ml streptomycin, and 2 mM L-glutamine) in a 100-mm dish, and incubated at 37° C. in 5% CO2 overnight. The next day, the non-adherent cells were pelleted and seeded at a density of 200,000 cells/cm^2. Then the osteoclast precursors were cultured in the presence of sRANKL (30 ng/ml) and M-CSF (30 ng/ml), and were treated with either tris(8-quinolinolato)gallium(III) or GaNO3 or DMSO (as a control). The medium was changed at day 3 to obtain mature osteoclasts at day 6. […] At the end of the treatment, the osteoclast preparations were stained for TRAP activity using a leukocyte acid phosphatase kit from Sigma and counted for TRAP-staining multinucleated cells. […] The number of cells having more than 3 nuclei was counted.
(§2) RNA was also isolated for gene expression analysis of osteoclast marker genes (TRAP, cathepsin K and NFAT2). Total RNA was extracted from osteoclasts treated with DMSO or tris(8-quinolinolato)gallium(III), and mRNAs were measured using real time RT-PCR. The relative levels of mRNAs were normalized to β-actin and then expressed as fold stimulation over DMSO-treated cells.

[2] = test system: osteoclast precursors (mouse bone marrow cells); test: Osteoclast differentiation/formation: count of TRAP-staining multinucleated cells from osteoclast precursors cultured with sRANKL and M-CSF; type: cell-based, mouse (C57BL/6); details: 0.2 nM to 100 μM, day 6, TRAP-stained cells with more than 3 nuclei; p<0.05 compared with DMSO and GaNO3 (3.9 μM, 39 μM); FIG. 1
Description: Mouse bone marrow cells were flushed out from femora and tibiae of two 1-2-month old mice (C57BL/6), plated in culture medium (alpha MEM supplemented with 10% heat-inactivated fetal bovine serum, 100 international units/ml penicillin, 100 μg/ml streptomycin, and 2 mM L-glutamine) in a 100-mm dish, and incubated at 37° C. in 5% CO2 overnight. The next day, the non-adherent cells were pelleted and seeded at a density of 200,000 cells/cm^2. Then the osteoclast precursors were cultured in the presence of sRANKL (30 ng/ml) and M-CSF (30 ng/ml), and were treated with either tris(8-quinolinolato)gallium(III) or GaNO3 or DMSO (as a control). The medium was changed at day 3 to obtain mature osteoclasts at day 6. For treatment with tris(8-quinolinolato)gallium(III), a drug stock solution prepared by dissolving tris(8-quinolinolato)gallium(III) in DMSO was added to the cell cultures to arrive at final concentrations of 0.2 nM, 2 nM, 0.02 μM, 0.2 μM, 2 μM, 20 μM, 50 μM, or 100 μM. At the end of the treatment, the osteoclast preparations were stained for TRAP activity using a leukocyte acid phosphatase kit from Sigma and counted for TRAP-staining multinucleated cells. Specifically, TRAP staining was performed and five areas of each well were photographed. The number of cells having more than 3 nuclei was counted.

[3] = test system: ovariectomized rats; test: Tibial bone mineral density by dual-energy X-ray absorptiometry in ovariectomized rats; type: in vivo, Sprague-Dawley female rats; details: 15 mg/kg oral, day one through day five of each week (daily), 32 days after first administration; FIG. 3
Description: (§3) The Sprague-Dawley female rats (100-125 gram, about 12 weeks old) were purchased from Taconic (Hudson, N.Y.). They were divided into 5 groups of 8 rats each. Four groups were ovariectomized, and one group was sham-operated. The rats were treated in the following manner: Group 1 ovariectomized rats were orally administered day one through day five of each week with 15 mg/kg tris(8-quinolinolato)gallium(III) (“daily”); Group 2 ovariectomized rats were treated with 75 mg/kg tris(8-quinolinolato)gallium(III) on day one of each week (“weekly”); Group 3 ovariectomized rats were treated with 38 mg/kg Ga(NO3)3 on day one of each week (“weekly”); Group 4 ovariectomized rats were treated with vehicle only (0.1% carboxymethylcellulose); Group 5 rats were sham-operated and were administered with vehicle only (0.1% carboxymethylcellulose). At the end of the experiment (32 days after the first administration of the compounds), the animals were anesthetized. Areal bone mineral density (BMD) and bone mineral content (BMC) were measured for the tibiae by dual-energy X-ray absorptiometry using an X-ray pixiMUS mouse densitometer.

[4] = test system: ovariectomized rats; test: Serum osteocalcin by ELISA in ovariectomized rats; type: in vivo, Sprague-Dawley female rats; details: daily drug (15 mg/kg oral, day one through day five of each week), FIG. 4
Description: as §3
Blood was drawn from the rats and left at room temperature for at least 30 minutes before centrifuging at 200×g for 10 minutes to separate sera. Serum was used for the measurement of serum markers including osteocalcin. Osteocalcin was measured by ELISA. […]

[5] = test system: NFAT2 gene expression; test: Osteoclast marker gene expression by real time RT-PCR: NFAT2; type: cell-based, mouse (C57BL/6); details: osteoclasts treated with drug vs DMSO; FIG. 2
Description: as §1, §2

[6] = test system: TRAP gene expression; test: Osteoclast marker gene expression by real time RT-PCR: TRAP; type: cell-based, mouse (C57BL/6); details: osteoclasts treated with drug vs DMSO; FIG. 2
Description: as §1, §2

[Ga+3].[O-]c1cccc2cccnc12.[O-]c1cccc2cccnc12.[O-]c1cccc2cccnc12 [tris(8-quinolinolato)gallium(III)]
cathepsin K gene expression (mRNA normalized to β-actin, fold over DMSO-treated cells) [1]: significantly inhibited
fusion of osteoclast precursors into multinucleated cells (osteoclast differentiation/formation) [2]: significantly inhibits
bone mineral density (tibiae) compared to ovariectomized untreated rats [3]: increased bone mineral density
serum osteocalcin compared to ovariectomized rats treated with vehicle only [4]: significantly associated with reduced serum osteocalcin
NFAT2 gene expression (mRNA normalized to β-actin, fold over DMSO-treated cells) [5]: significantly inhibited
TRAP gene expression (mRNA normalized to β-actin, fold over DMSO-treated cells) [6]: significantly inhibited
